Biological target: T1, M.SssI (Spiroplasma monobiae, UniProt P15840)
T1 construct: gene sssIM
Experiment: padlock probe/RCA fluorescence methyltransferase activity assay with commercial M.SssI ([…] U/mL)
Assay type: biochemical

T1 sequence (P15840 whole entry): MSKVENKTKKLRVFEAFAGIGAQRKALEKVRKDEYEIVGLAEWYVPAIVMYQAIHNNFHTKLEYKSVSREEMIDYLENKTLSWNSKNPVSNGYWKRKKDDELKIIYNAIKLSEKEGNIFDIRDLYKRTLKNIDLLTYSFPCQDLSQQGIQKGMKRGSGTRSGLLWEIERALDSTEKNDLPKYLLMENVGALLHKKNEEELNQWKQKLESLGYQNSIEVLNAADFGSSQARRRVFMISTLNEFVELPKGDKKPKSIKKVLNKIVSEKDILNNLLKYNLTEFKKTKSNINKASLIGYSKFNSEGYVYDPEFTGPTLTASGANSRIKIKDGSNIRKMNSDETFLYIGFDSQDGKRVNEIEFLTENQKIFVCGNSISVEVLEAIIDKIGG

IC50 | SMILES
4.91 µM | Nc1ncn([C@@H]2O[C@H](CO)[C@@H](O)[C@H]2O)c(=O)n1 [5-Aza, 5-Azacytidine]
8.84 µM | O=c1[nH]cc(F)c(=O)[nH]1 [5-F, 5-fluorouracil]

From PMC9332213, “Simple Detection of DNA Methyltransferase with an Integrated Padlock Probe” (Biosensors, 2022)
